For data set [1], the system named is Staphylococcus aureus. Put plainly: Drug binding to daptomycin-nonsusceptible Staphylococcus aureus isolate 701 bloodstream form isolated from patient with endocarditis at 32 ug after 10 mins by radial diffusion assay. The class given is ADME, organism-based.
In data set [2] the test system is Staphylococcus aureus. Description: Antibacterial activity against daptomycin-nonsusceptible Staphylococcus aureus isolate 701 bloodstream form isolated from patient with endocarditis after 18 hrs by microdilution technique. As to conditions: Staphylococcus aureus, 701, 18 h. The class given is functional. On the technique in general: Broth dilution looks for growth in wells or tubes with falling amounts of substance.

In data set [3] the test system is Staphylococcus aureus. Put plainly: Antibacterial activity against daptomycin-transitional Staphylococcus aureus isolate 629 bloodstream form isolated from patient with endocarditis after 18 hrs by microdilution technique. The format is functional. As to conditions: Staphylococcus aureus, 629, 18 h.
The test system of data set [4] is Staphylococcus aureus. Put plainly: Drug binding to daptomycin-nonsusceptible Staphylococcus aureus isolate 703 bloodstream form isolated from patient with endocarditis at 32 ug after 10 mins by radial diffusion assay. The class given is ADME, organism-based.
For data set [5], the system named is Staphylococcus aureus. Description: Drug binding to methicillin-susceptible Staphylococcus aureus isolate 616 bloodstream form isolated from patient with endocarditis at 32 ug after 10 mins by radial diffusion assay. The class given is ADME, organism-based.
Data set [6] deals with Staphylococcus aureus. Put plainly: Antibacterial activity against methicillin-susceptible Staphylococcus aureus isolate 616 bloodstream form isolated from patient with endocarditis after 18 hrs by microdilution technique. The class given is functional. The conditions noted are these: Staphylococcus aureus, 616, 18 h.
Data set [7] has as its system Staphylococcus aureus. Description: Antibacterial activity against daptomycin-nonsusceptible Staphylococcus aureus isolate 703 bloodstream form isolated from patient with endocarditis after 18 hrs by microdilution technique. The format is functional. As to conditions: Staphylococcus aureus, 703, 18 h.
In data set [8] the test system is Staphylococcus aureus. Put plainly: Drug binding to daptomycin-transitional Staphylococcus aureus isolate 629 bloodstream form isolated from patient with endocarditis at 32 ug after 10 mins by radial diffusion assay. The class given is ADME, organism-based.
The test system of data set [9] is Staphylococcus aureus. Description: Drug binding to daptomycin-transitional Staphylococcus aureus isolate 629 bloodstream form isolated from patient with endocarditis at 40 ug after 10 mins by radial diffusion assay. The class given is ADME, organism-based.
In data set [10] the test system is Staphylococcus aureus. Description: Drug binding to methicillin-susceptible Staphylococcus aureus isolate 616 bloodstream form isolated from patient with endocarditis at 40 ug after 10 mins by radial diffusion assay. As to conditions: in vivo. The format is ADME, organism-based.
The subject of data set [11] is Staphylococcus aureus. Put plainly: Drug binding to daptomycin-nonsusceptible Staphylococcus aureus isolate 703 bloodstream form isolated from patient with endocarditis at 40 ug after 10 mins by radial diffusion assay. The class given is ADME, organism-based.
The test system of data set [12] is Staphylococcus aureus. Description: Drug binding to daptomycin-nonsusceptible Staphylococcus aureus isolate 701 bloodstream form isolated from patient with endocarditis at 40 ug after 10 mins by radial diffusion assay. The class given is ADME, organism-based.

Values after ≈ are worked out from the molar mass of the structure shown. Non-standard residues stand in square brackets, D forms with d. Residues, ends and D or L forms follow the SMILES beside them. *: point of attachment. NHCH2CH2OH = OCCN*; For = O=C*

For orientation: MIC means the lowest concentration that inhibits growth of the organism. Read a high MIC as a need for much substance.

Take `CC(C)C[C@@H](NC(=O)[C@H](C)NC(=O)CNC(=O)[C@@H](NC=O)C(C)C)C(=O)N[C@@H](C)C(=O)N[C@@H](C(=O)N[C@H](C(=O)N[C@@H](C(=O)N[C@@H](Cc1c[nH]c2ccccc12)C(=O)N[C@H](CC(C)C)C(=O)N[C@@H](Cc1c[nH]c2ccccc12)C(=O)N[C@H](CC(C)C)C(=O)N[C@@H](Cc1c[nH]c2ccccc12)C(=O)N[C@H](CC(C)C)C(=O)N[C@@H](Cc1c[nH]c2ccccc12)C(=O)NCCO)C(C)C)C(C)C)C(C)C` [GRAMICIDIN D] (For-VGA[dL]A[dV]V[dV]W[dL]W[dL]W[dL]W-NHCH2CH2OH): the Drug uptake is 11 µg/mL in the data set with Staphylococcus aureus [1], 9 µg/mL in the data set on Staphylococcus aureus [4], 12 µg/mL in the data set on Staphylococcus aureus [5] and 10 µg/mL with Staphylococcus aureus [8]. In addition, the MIC against Staphylococcus aureus [2], with Staphylococcus aureus [3], with Staphylococcus aureus [6] and against Staphylococcus aureus [7] was 32 µg/mL (≈ 17 µM) throughout.
As to H-ALYKKFKKKLLKSLKRLG-OH, the Drug uptake is 11.7 µg/mL with Staphylococcus aureus [9], 12.4 µg/mL in the data set with Staphylococcus aureus [10], 8 µg/mL in the data set on Staphylococcus aureus [11] and 11.7 µg/mL in the data set on Staphylococcus aureus [12].

These data come from ChEMBL document CHEMBL1151454, “Failures in clinical treatment of Staphylococcus aureus Infection with daptomycin are associated with alterations in surface charge, membrane phospholipid asymmetry, and drug binding” (Antimicrob Agents Chemother, 2008).
